Where a name gives a salt, the structure may show the parent alone. Read-outs that look alike come from different tables or passages of the source.
What was measured:
[1] = molecular target: T1, SARS-CoV-2 PLpro (nsp3 1564–1878) (Severe acute respiratory syndrome coronavirus 2, UniProt P0DTD1); assay: biochemical; design: FRET-quenched peptide (Pro3) cleavage by PLpro, 10 min pre-incubation, slope over 20 min, normalised to no-compound control; settings: read-out: % of control remaining
[2] = molecular target: T1, SARS-CoV-2 PLpro (nsp3 1564–1878); assay: biochemical; design: FRET-quenched peptide (Pro3) cleavage by PLpro, 10 min pre-incubation, slope over 20 min, normalised to no-compound control; settings: read-out: % of control remaining; remark: listed apart in the source

Structure (SMILES): CC(N)(COP(=O)(O)O)C(=O)O (stereo not shown) [2-methyl-O-phosphonoserine]
- remaining activity at 1.25 µM ([1]; Well no.=5427, low concentration screen): 96.2%
- remaining activity at 3.75 µM ([2]; Well no.=5427, high concentration screen): 101%

Structure (SMILES): CCc1nn(CCCN2CCN(c3cccc(Cl)c3)CC2)c(=O)n1CCOc1ccccc1 [2-{3-[4-(3-chlorophenyl)-1-piperazinyl]propyl}-5-ethyl-4-(2-phenoxyethyl)-2,4-dihydro-3H-1,2,4-triazol-3-one hydrochloride]
- remaining activity at 1.25 µM ([1]; Well no.=5691, low concentration screen): 99.4%
- remaining activity at 3.75 µM ([2]; Well no.=5691, high concentration screen): 96.7%

Structure (SMILES): OCCOc1ccc(/C(=C(/CCCl)c2ccccc2)c2ccccc2)cc1 [2-{4-[(1Z)-4-chloro-1,2-diphenyl-1-butenyl]phenoxy}ethanol]
- remaining activity at 1.25 µM ([1]; Well no.=5956, low concentration screen): 92.3%
- remaining activity at 3.75 µM ([2]; Well no.=5956, high concentration screen): 93.6%

Structure (SMILES): Cc1ccc(OCCSc2ncccn2)c(Br)c1 [2-{[2-(2-bromo-4-methylphenoxy)ethyl]sulfanyl}pyrimidine]
- remaining activity at 1.25 µM ([1]; Well no.=6035, low concentration screen): 95.4%
- remaining activity at 3.75 µM ([2]; Well no.=6035, high concentration screen): 94.6%

Structure (SMILES): CCCCCCCC/C=C\CCCCCCC(O)C(=O)O (stereo not shown) [2OHOA]
- remaining activity at 1.25 µM ([1]; Well no.=5534, low concentration screen): 97.8%
- remaining activity at 3.75 µM ([2]; Well no.=5534, high concentration screen): 96.7%

Structure (SMILES): N/C(=N\C(=O)c1nc(Cl)c(N)nc1N)NCc1ccc(Cl)c(Cl)c1 [3',4'-Dichlorobenzamil]
- remaining activity at 1.25 µM ([1]; Well no.=440, low concentration screen): 99.5%
- remaining activity at 3.75 µM ([2]; Well no.=440, high concentration screen): 88.3%

Structure (SMILES): [N-]=[N+]=N[C@H]1[C@@H](O)[C@H](n2cc(F)c(N)nc2=O)O[C@@H]1CO [3'-Azido-3'-deoxy-5-fluorocytidine]
- remaining activity at 1.25 µM ([1]; Well no.=7910, low concentration screen): 96.3%
- remaining activity at 3.75 µM ([2]; Well no.=7910, high concentration screen): 95%

Structure (SMILES): Cc1cn([C@@H]2O[C@H](CO)[C@@H](N=[N+]=[N-])[C@H]2O)c(=O)nc1N [3'-Azido-3'-deoxy-5-methylcytidine]
- remaining activity at 1.25 µM ([1]; Well no.=7804, low concentration screen): 98.2%
- remaining activity at 3.75 µM ([2]; Well no.=7804, high concentration screen): 97.5%

Structure (SMILES): [N-]=[N+]=N[C@@H]1[C@H](O)[C@@H](n2ccc(=O)[nH]c2=O)O[C@H]1CO [3'-Azido-3'-deoxy-beta-L-uridine]
- remaining activity at 1.25 µM ([1]; Well no.=7758, low concentration screen): 97.9%
- remaining activity at 3.75 µM ([2]; Well no.=7758, high concentration screen): 102%

Structure (SMILES): O=c1oc(Cl)c(Cl)c2ccccc12 [3,4-Dichloroisocoumarin]
- remaining activity at 1.25 µM ([1]; Well no.=582, low concentration screen): 100%
- remaining activity at 3.75 µM ([2]; Well no.=582, high concentration screen): 103%

Structure (SMILES): O=C(O)Cc1ccc(O)c(O)c1 [3,4-Dihydroxybenzeneacetic acid]
- remaining activity at 1.25 µM ([1]; Well no.=6355, low concentration screen): 104%
- remaining activity at 3.75 µM ([2]; Well no.=6355, high concentration screen): 106%

Structure (SMILES): O=C(O)Cc1ccc(O)c(O)c1 [3,4-Dihydroxyphenylacetic acid]
- remaining activity at 1.25 µM ([1]; Well no.=442, low concentration screen): 103%
- remaining activity at 3.75 µM ([2]; Well no.=442, high concentration screen): 104%

Structure (SMILES): COc1ccc(CC(=O)O)cc1OC [3,4-Dimethoxyphenylacetic acid]
- remaining activity at 1.25 µM ([1]; Well no.=6639, low concentration screen): 103%
- remaining activity at 3.75 µM ([2]; Well no.=6639, high concentration screen): 104%

Structure (SMILES): O=C(O)c1cc(O)cc(O)c1 [3,5-Dihydroxybenzoic acid]
- remaining activity at 1.25 µM ([1]; Well no.=6829, low concentration screen): 101%
- remaining activity at 3.75 µM ([2]; Well no.=6829, high concentration screen): 117%

Structure (SMILES): C#CCn1c(=O)c2c(ncn2C)n(C)c1=O [3,7-Dimethyl-I-propargylxanthine]
- remaining activity at 1.25 µM ([1]; Well no.=498, low concentration screen): 99.2%
- remaining activity at 3.75 µM ([2]; Well no.=498, high concentration screen): 97.4%

Structure (SMILES): CC(C)=CCc1cc2c(cc1O)oc(=O)c1c3ccc(O)cc3oc21 [3,9-dihydroxy-2-(3-methyl-2-butenyl)-6H-[1]benzofuro[3,2-c]chromen-6-one]
- remaining activity at 1.25 µM ([1]; Well no.=6091, low concentration screen): 95.4%
- remaining activity at 3.75 µM ([2]; Well no.=6091, high concentration screen): 87.9%

Structure (SMILES): CN(C)c1ccnc2sc3c(=O)n(N4CCCCCC4)cnc3c12 [3-(1-azepanyl)-9-(dimethylamino)pyrido[3',2':4,5]thieno[3,2-d]pyrimidin-4(3H)-one]
- remaining activity at 1.25 µM ([1]; Well no.=5949, low concentration screen): 92.3%
- remaining activity at 3.75 µM ([2]; Well no.=5949, high concentration screen): 93.5%

Structure (SMILES): Fc1ccc(C(OCCCc2cnc[nH]2)c2ccc(F)cc2)cc1 [3-(1H-Imidazol-4-yl)propyl di(p-fluorophenyl)methyl ether hydrochloride]
- remaining activity at 1.25 µM ([1]; Well no.=1019, low concentration screen): 93.6%
- remaining activity at 3.75 µM ([2]; Well no.=1019, high concentration screen): 95.3%

Structure (SMILES): N#Cc1cccc(-c2c[nH]c3ncnc(N4CCOCC4)c23)c1 [3-(4-morpholino-7H-pyrrolo[2,3-d]pyrimidin-5-yl)benzonitrile]
- remaining activity at 1.25 µM ([1]; Well no.=5684, low concentration screen): 97.4%
- remaining activity at 3.75 µM ([2]; Well no.=5684, high concentration screen): 99.8%

Structure (SMILES): Cc1cccc(-c2nn(C(=S)Nc3ccccc3)cc2-c2ccnc3ccccc23)n1 [3-(6-methyl-2-pyridinyl)-N-phenyl-4-(4-quinolinyl)-1H-pyrazole-1-carbothioamide]
- remaining activity at 1.25 µM [1]: 99.2%
- remaining activity at 3.75 µM [2]: 100%

Structure (SMILES): COc1ccc(C(=O)Nc2c(Cl)cncc2Cl)cc1OC1CCCC1 [3-(cyclopentyloxy)-N-(3,5-dichloro-4-pyridinyl)-4-methoxybenzamide]
- remaining activity at 1.25 µM ([1]; Well no.=5876, low concentration screen): 105%
- remaining activity at 3.75 µM ([2]; Well no.=5876, high concentration screen): 104%

Structure (SMILES): NCCCS(=O)(=O)O [3-Amino-1-propanesulfonic acid sodium]
- remaining activity at 1.25 µM ([1]; Well no.=301, low concentration screen): 98%
- remaining activity at 3.75 µM ([2]; Well no.=301, high concentration screen): 98.1%

Structure (SMILES): CC(CN)C(=O)O (stereo not shown) [3-Amino-2-methylpropanoic acid]
- remaining activity at 1.25 µM ([1]; Well no.=6787, low concentration screen): 101%
- remaining activity at 3.75 µM ([2]; Well no.=6787, high concentration screen): 97.6%

Structure (SMILES): CC(C)C(N)CC(=O)O (stereo not shown) [3-Amino-4-methylpentanoic acid]
- remaining activity at 1.25 µM ([1]; Well no.=6403, low concentration screen): 103%
- remaining activity at 3.75 µM ([2]; Well no.=6403, high concentration screen): 105%

Structure (SMILES): O=C(O)/C=C/C(=O)O [3-Aminopropionitrile fumarate]
- remaining activity at 1.25 µM ([1]; Well no.=251, low concentration screen): 92.7%
- remaining activity at 3.75 µM ([2]; Well no.=251, high concentration screen): 93.7%

Structure (SMILES): NCCCP(=O)(O)O [3-Aminopropylphosphonic acid]
- remaining activity at 1.25 µM ([1]; Well no.=357, low concentration screen): 90.6%
- remaining activity at 3.75 µM ([2]; Well no.=357, high concentration screen): 93.7%

Structure (SMILES): O=C(O)/C=C/c1c[nH]c2ccccc12 [3-Beta-Indoleacrylic acid]
- remaining activity at 1.25 µM ([1]; Well no.=3773, low concentration screen): 99%
- remaining activity at 3.75 µM ([2]; Well no.=3773, high concentration screen): 101%

Structure (SMILES): O=[N+]([O-])c1cccc2c(Br)[nH]nc12 [3-Bromo-7-nitroindazole]
- remaining activity at 1.25 µM ([1]; Well no.=27, low concentration screen): 98.5%
- remaining activity at 3.75 µM ([2]; Well no.=27, high concentration screen): 96.1%

Structure (SMILES): N[C@@H](Cc1ccc(O)c(Cl)c1)C(=O)O [3-Chloro-L-tyrosine]
- remaining activity at 1.25 µM ([1]; Well no.=7491, low concentration screen): 101%
- remaining activity at 3.75 µM ([2]; Well no.=7491, high concentration screen): 101%

Structure (SMILES): Nc1nccc2c1ncn2[C@@H]1O[C@H](CO)[C@@H](O)[C@H]1O [3-Deazaadenosine (hydrochloride)]
- remaining activity at 1.25 µM ([1]; Well no.=7808, low concentration screen): 96.7%
- remaining activity at 3.75 µM ([2]; Well no.=7808, high concentration screen): 92.6%

Structure (SMILES): Nc1c(O)cccc1C(=O)O [3-Hydroxyanthranilic acid]
- remaining activity at 1.25 µM ([1]; Well no.=6535, low concentration screen): 102%
- remaining activity at 3.75 µM ([2]; Well no.=6535, high concentration screen): 91.9%

Structure (SMILES): NNCc1cccc(O)c1 [3-Hydroxybenzylhydrazine dihydrochloride]
- remaining activity at 1.25 µM ([1]; Well no.=568, low concentration screen): 104%
- remaining activity at 3.75 µM ([2]; Well no.=568, high concentration screen): 97.9%

Structure (SMILES): CC(O)CC(=O)O (stereo not shown) [3-Hydroxybutyric acid]
- remaining activity at 1.25 µM ([1]; Well no.=7117, low concentration screen): 103%
- remaining activity at 3.75 µM ([2]; Well no.=7117, high concentration screen): 99%

Structure (SMILES): O=C(O)CNC(=O)c1cccc(O)c1 [3-Hydroxyhippuric acid]
- remaining activity at 1.25 µM ([1]; Well no.=7219, low concentration screen): 102%
- remaining activity at 3.75 µM ([2]; Well no.=7219, high concentration screen): 99.6%

Structure (SMILES): CC(C)(O)CC(=O)O [3-Hydroxyisovaleric acid]
- remaining activity at 1.25 µM ([1]; Well no.=6925, low concentration screen): 108%
- remaining activity at 3.75 µM ([2]; Well no.=6925, high concentration screen): 98.6%

Source: PMC8286840, “Identifying SARS-CoV-2 antiviral compounds by screening for small molecule inhibitors of Nsp3 papain-like protease” (Biochemical Journal, 2021)
